Test results: PubChem BioAssay (NCI)
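Five compound concentrations were applied to cells in 96-well plates for 48 hours; endpoints were derived by simple linear interpolation of the resulting dose-response curve. GI50 = concentration required for 50% inhibition of growth. Definition used: TGI = concentration required for complete inhibition of growth.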

What was measured:
Assay in all cases: NCI anticancer screen, dose series, 48 h
DMS 114 small cell lung = tested on: DMS 114 small cell lung
RXF-631 renal = tested on: RXF-631 renal
SNB-78 CNS = tested on: SNB-78 CNS
M19-MEL melanoma = tested on: M19-MEL melanoma

Row | SMILES | TGI (DMS 114 small cell lung) [µM] | TGI (RXF-631 renal) [µM] | TGI (SNB-78 CNS) [µM] | TGI (M19-MEL melanoma) [µM] | GI50 (DMS 114 small cell lung) [µM] | GI50 (RXF-631 renal) [µM] | GI50 (SNB-78 CNS) [µM] | GI50 (M19-MEL melanoma) [µM]
1 | CC(C)NC(=O)OCc1nnn2c1C(OC(=O)NC(C)C)CC2 (centres undefined) | > 100 | > 100 | > 100 | > 100 |  |  |  | 
2 | CCCCN(CCCC)C(=Nc1ccccc1)N(CCCC)CCCC | 4.99 | 26.2 | 41 | 22.4 |  |  |  | 
3 | c1ccc([CH2][Sn]([CH2]c2ccccc2)([S]c2cccc3cccnc23)[S]c2cccc3cccnc23)cc1 | 0.378 | 0.552 | 1.5 | 0.739 | 0.175 | 0.225 | 0.382 | 0.276
4 | O=C(CC(O)(c1ccccc1)c1ccc(Cl)cc1)NC(=O)c1ccccc1O (centres undefined) | 31.5 | 74.8 | > 100 | 82.8 |  |  |  | 
5 | CCc1ccc(Cc2ccc(CC)c(NC(=O)C(=O)Cc3nc4ccccc4nc3C)c2CC)c(CC)c1NC(=O)C(=O)Cc1nc2ccccc2nc1C | > 100 | > 100 | > 100 | > 100 |  |  |  | 
6 | COC(=O)C1=CC(=O)C(C(=O)Nc2ccc(OC)cc2)C(c2ccccc2)O1 (centres undefined) | > 67.5 | > 83.6 | > 81.9 |  |  |  |  | 
7 | COc1ccc(NC(=O)CC/C(CC(=O)c2ccco2)=N/Nc2ccc([N+](=O)[O-])cc2[N+](=O)[O-])cc1 | 69.6 | > 100 | > 100 | > 100 |  |  |  | 
8 | CN1CCC(O)C(CNC23CC4CC(CC(C4)C2)C3)C1 (centres undefined) | > 100 | > 100 | > 100 | > 100 |  |  |  | 
9 | CCOC(=O)C(C(=O)c1ccccc1-c1ccccc1C(=O)O)=P(c1ccccc1)(c1ccccc1)c1ccccc1 | 54.4 | > 100 |  | 72.8 |  |  |  | 
10 | [N-]=[N+]=Nc1ccc(S(=O)(=O)Oc2cc(OS(=O)(=O)c3ccc(N=[N+]=[N-])cc3)cc(OS(=O)(=O)c3ccc(N=[N+]=[N-])cc3)c2)cc1 | > 100 | > 100 | > 100 | > 100 |  |  |  | 
11 | Cc1c(C(=O)/C=C/c2ccco2)[n+](=O)c2ccccc2n1[O-] | > 100 | > 100 | > 100 | > 100 |  |  |  | 
12 | COc1ccc(C(=O)O/N=C2\CCCC\C2=C/c2ccccc2)cc1 | > 100 | > 100 | > 100 | > 100 |  |  |  | 
13 | N#Cc1c([N+](=O)[O-])cc(C(F)(F)F)cc1[N+](=O)[O-] | 3.93 | 27.3 | 4.15 | 5.27 |  |  |  | 
